Results published in patent publication US9981916B2 (Genentech, Inc., priority 2013, dated 2018).

Biological target: T1, RORc ligand binding domain (Homo sapiens, UniProt P51449)
T1 construct: host or cells: E. coli
T1 sequence (P51449 269-508 limits assumed): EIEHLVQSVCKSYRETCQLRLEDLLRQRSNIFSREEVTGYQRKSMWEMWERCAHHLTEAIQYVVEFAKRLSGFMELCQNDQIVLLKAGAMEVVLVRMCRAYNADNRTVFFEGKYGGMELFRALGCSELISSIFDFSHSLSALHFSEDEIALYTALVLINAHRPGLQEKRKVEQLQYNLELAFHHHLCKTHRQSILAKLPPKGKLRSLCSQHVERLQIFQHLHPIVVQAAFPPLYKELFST
Experiment: In vitro RORc ligand binding assay (25-[3H]hydroxycholesterol displacement, filter binding)
Conditions: 6 nM 25-[3H]hydroxycholesterol, 0.6 ug/mL RORc receptor, 3 h at 25° C.
Summary of the method: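 Filter-binding displacement of 6 nM 25-[3H]hydroxycholesterol from RORc receptor (0.6 ug/mL) in 50 mM HEPES pH 7.4, 150 mM NaCl, 5 mM MgCl2, 1 mM DTT, 0.01% BSA, 5% DMSO; 3 h at 25° C. NSB defined with 1 uM 25-hydroxycholesterol; scintillation counting gave Kiapp, IC50 or % inhibition (screening at 1 and 10 uM).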

Structure (SMILES) | IC50 [nM]
CC1(C)[C@@H]2CC[C@@]1(C(=O)N1CCC3(COC3)C1)c1nnc(-c3c(F)cccc3F)cc12 [Example 218, ((5S,8S)-3-(2,6-difluorophenyl)-9,9-dimethyl-5,6,7,8-tetrahydro-5,8-methanocinnolin-8-yl)(2-oxa-6-azaspiro[3.4]octan-6-yl)methanone] | 2440
CC1(O)CCN(C(=O)[C@]23CC[C@H](c4cc(-c5c(F)cccc5F)nnc42)C3(C)C)C1 (stereo partly drawn) [Example 219, ((5S,8S)-3-(2,6-difluorophenyl)-9,9-dimethyl-5,6,7,8-tetrahydro-5,8-methanocinnolin-8-yl)(3-hydroxy-3-methylpyrrolidin-1-yl)methanone] | 1100
C[C@H]1CN(C(=O)[C@]23CC[C@H](c4cc(-c5c(F)cccc5F)nnc42)C3(C)C)C[C@@H]1O [Example 220, ((5S,8S)-3-(2,6-difluorophenyl)-9,9-dimethyl-5,6,7,8-tetrahydro-5,8-methanocinnolin-8-yl)((3R,4S)-3-hydroxy-4-methylpyrrolidin-1-yl)methanone] | 2940
CC1(C)[C@@H]2CC[C@@]1(C(=O)N1CC3(CCCO3)C1)c1nnc(-c3c(F)cccc3F)cc12 [Example 221, ((5S,8S)-3-(2,6-difluorophenyl)-9,9-dimethyl-5,6,7,8-tetrahydro-5,8-methanocinnolin-8-yl)(5-oxa-2-azaspiro[3.4]octan-2-yl)methanone] | 612
CNC(=O)[C@H]1[C@@H]2CN(C(=O)[C@]34CC[C@H](c5cc(-c6c(F)cccc6F)nnc53)C4(C)C)C[C@@H]21 [Example 222, (1R,5S,6S)-3-((5S,8S)-3-(2,6-difluorophenyl)-9,9-dimethyl-5,6,7,8-tetrahydro-5,8-methanocinnoline-8-carbonyl)-N-methyl-3-azabicyclo[3.1.0]hexane-6-carboxamide] | 1430
CC1(C)[C@@H]2CC[C@@]1(C(=O)N1CCC3CC31)c1nnc(-c3c(F)cccc3F)cc12 (stereo partly drawn) [Example 223, 2-azabicyclo[3.1.0]hexan-2-yl((5S,8S)-3-(2,6-difluorophenyl)-9,9-dimethyl-5,6,7,8-tetrahydro-5,8-methanocinnolin-8-yl)methanone] | 196
CC1(C)[C@@H]2CC[C@@]1(C(=O)N1CCCC1C(F)(F)F)c1nnc(-c3c(F)cccc3F)cc12 (stereo partly drawn) [Example 224, ((5S,8S)-3-(2,6-difluorophenyl)-9,9-dimethyl-5,6,7,8-tetrahydro-5,8-methanocinnolin-8-yl)(2-(trifluoromethyl)pyrrolidin-1-yl)methanone] | 327
CC(=O)N[C@H]1CCN(C(=O)[C@]23CC[C@H](c4cc(-c5c(F)cccc5F)nnc42)C3(C)C)C1 [Example 225, N-((S)-1-((5S,8S)-3-(2,6-difluorophenyl)-9,9-dimethyl-5,6,7,8-tetrahydro-5,8-methanocinnoline-8-carbonyl)pyrrolidin-3-yl)acetamide] | 2720
Cn1nc([C@@]23CC[C@@H](c4cc(-c5c(F)cccc5F)nnc42)C3(C)C)oc1=O [Example 226, 5-((5R,8R)-3-(2,6-difluorophenyl)-9,9-dimethyl-5,6,7,8-tetrahydro-5,8-methanocinnolin-8-yl)-3-methyl-1,3,4-oxadiazol-2(3H)-one] | 124
Cc1ncoc1[C@]12CC[C@H](c3cc(-c4c(F)cccc4F)nnc31)C2(C)C [Example 227, 5-((5S,8S)-3-(2,6-difluorophenyl)-9,9-dimethyl-5,6,7,8-tetrahydro-5,8-methanocinnolin-8-yl)-4-methyloxazole] | 139
Cc1ocnc1[C@]12CC[C@H](c3cc(-c4c(F)cccc4F)nnc31)C2(C)C [Example 228, 4-((5S,8R)-3-(2,6-difluorophenyl)-9,9-dimethyl-5,6,7,8-tetrahydro-5,8-methanocinnolin-8-yl)-5-methyloxazole] | 137
Cc1nn(C)/c(=N\[C@@]23CC[C@@H](c4cc(-c5ccccc5F)nnc42)C3(C)C)o1 [Example 229, (5R,8R,E)-N-(3,5-dimethyl-1,3,4-oxadiazol-2(3H)-ylidene)-3-(2-fluorophenyl)-9,9-dimethyl-5,6,7,8-tetrahydro-5,8-methanocinnolin-8-amine] | 1530
Cc1nnc(N(C)[C@@]23CC[C@@H](c4cc(-c5ccccc5F)nnc42)C3(C)C)o1 [Example 230, N-((5R,8R)-3-(2-fluorophenyl)-9,9-dimethyl-5,6,7,8-tetrahydro-5,8-methanocinnolin-8-yl)-N,5-dimethyl-1,3,4-oxadiazol-2-amine] | 1820
CC1(C)[C@@H]2CC[C@@]1(C(=O)N1C[C@@H]3C[C@H]1CO3)c1nnc(-c3c(F)cccc3F)cc12 [Example 231, (1S,4S)-2-oxa-5-azabicyclo[2.2.1]heptan-5-yl((5S,8S)-3-(2,6-difluorophenyl)-9,9-dimethyl-5,6,7,8-tetrahydro-5,8-methanocinnolin-8-yl)methanone] | 241
CC1(C)[C@@H]2CC[C@@]1(C(=O)N1CC(n3cccn3)C1)c1nnc(-c3c(F)cccc3F)cc12 [Example 232, (3-(1H-pyrazol-1-yl)azetidin-1-yl)((5S,8S)-3-(2,6-difluorophenyl)-9,9-dimethyl-5,6,7,8-tetrahydro-5,8-methanocinnolin-8-yl)methanone] | 232
CC1(C)[C@@H]2CC[C@@]1(C(=O)N1CC(CO)C1)c1nnc(-c3c(F)cccc3F)cc12 [Example 233, ((5S,8S)-3-(2,6-difluorophenyl)-9,9-dimethyl-5,6,7,8-tetrahydro-5,8-methanocinnolin-8-yl)(3-(hydroxymethyl)azetidin-1-yl)methanone] | 819
C[C@H]1CCCN1C(=O)[C@]12CC[C@H](c3cc(-c4c(F)cccc4F)nnc31)C2(C)C [Example 234, ((5S,8S)-3-(2,6-difluorophenyl)-9,9-dimethyl-5,6,7,8-tetrahydro-5,8-methanocinnolin-8-yl)((S)-2-methylpyrrolidin-1-yl)methanone] | 238
CC(C)OC1CN(C(=O)[C@]23CC[C@H](c4cc(-c5c(F)cccc5F)nnc42)C3(C)C)C1 [Example 235, ((5S,8S)-3-(2,6-difluorophenyl)-9,9-dimethyl-5,6,7,8-tetrahydro-5,8-methanocinnolin-8-yl)(3-isopropoxyazetidin-1-yl)methanone] | 844
CC1(C)[C@@H]2CC[C@@]1(C(=O)N1CC[C@@H](C#N)C1)c1nnc(-c3c(F)cccc3F)cc12 [Example 236, (R)-1-((5S,8S)-3-(2,6-difluorophenyl)-9,9-dimethyl-5,6,7,8-tetrahydro-5,8-methanocinnoline-8-carbonyl)pyrrolidine-3-carbonitrile] | 405
CC1(C)CCN(C(=O)[C@]23CC[C@H](c4cc(-c5c(F)cccc5F)nnc42)C3(C)C)C1 [Example 237, ((5S,8S)-3-(2,6-difluorophenyl)-9,9-dimethyl-5,6,7,8-tetrahydro-5,8-methanocinnolin-8-yl)(3,3-dimethylpyrrolidin-1-yl)methanone] | 498
CC1(C)[C@@H]2CC[C@@]1(C(=O)N1CC[C@@H](O)C1)c1nnc(-c3c(F)cccc3F)cc12 [Example 238, ((5S,8S)-3-(2,6-difluorophenyl)-9,9-dimethyl-5,6,7,8-tetrahydro-5,8-methanocinnolin-8-yl)((R)-3-hydroxypyrrolidin-1-yl)methanone] | 236
CN1C[C@@H]2C[C@H]1CN2C(=O)[C@]12CC[C@H](c3cc(-c4c(F)cccc4F)nnc31)C2(C)C [Example 239, ((5S,8S)-3-(2,6-difluorophenyl)-9,9-dimethyl-5,6,7,8-tetrahydro-5,8-methanocinnolin-8-yl)((1S,4S)-5-methyl-2,5-diazabicyclo[2.2.1]heptan-2-yl)methanone] | 892
CC1(C)[C@@H]2CC[C@@]1(C(=O)N1CC3(CCC3)C1)c1nnc(-c3c(F)cccc3F)cc12 [Example 240, ((5S,8S)-3-(2,6-difluorophenyl)-9,9-dimethyl-5,6,7,8-tetrahydro-5,8-methanocinnolin-8-yl)(2-azaspiro[3.3]heptan-2-yl)methanone] | 217
CC1(C)[C@@H]2CC[C@@]1(C(=O)N1C[C@@H]3C[C@H]1CN3S(C)(=O)=O)c1nnc(-c3c(F)cccc3F)cc12 [Example 241, ((5S,8S)-3-(2,6-difluorophenyl)-9,9-dimethyl-5,6,7,8-tetrahydro-5,8-methanocinnolin-8-yl)((1S,4S)-5-(methylsulfonyl)-2,5-diazabicyclo[2.2.1]heptan-2-yl)methanone] | 327
CN(C)[C@@H]1CCN(C(=O)[C@]23CC[C@H](c4cc(-c5c(F)cccc5F)nnc42)C3(C)C)C1 [Example 242, ((5S,8S)-3-(2,6-difluorophenyl)-9,9-dimethyl-5,6,7,8-tetrahydro-5,8-methanocinnolin-8-yl) ((R)-3-(dimethylamino)pyrrolidin-1-yl)methanone] | 707
CNC(=O)C1CCCN1C(=O)[C@]12CC[C@H](c3cc(-c4c(F)cccc4F)nnc31)C2(C)C (stereo partly drawn) [Example 243, 1-((5S,8S)-3-(2,6-difluorophenyl)-9,9-dimethyl-5,6,7,8-tetrahydro-5,8-methanocinnoline-8-carbonyl)-N-methylpyrrolidine-2-carboxamide] | 2950
CNC(=O)C1CCN(C(=O)[C@]23CC[C@H](c4cc(-c5c(F)cccc5F)nnc42)C3(C)C)C1 (stereo partly drawn) [Example 244, 1-((5S,8S)-3-(2,6-difluorophenyl)-9,9-dimethyl-5,6,7,8-tetrahydro-5,8-methanocinnoline-8-carbonyl)-N-methylpyrrolidine-3-carboxamide] | 904
